ChEMBL document CHEMBL1201862, “PubChem BioAssay data set” (2004)
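A five-concentration, 48-hour dose response in 96-well plates underlies each endpoint, interpolated linearly between surrounding concentrations. GI50 = concentration required for 50% inhibition of growth.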 Calls of active or inactive are those of the source. Rule as the data show it: active = GI50 up to about 1.1 µM and inactive = higher.

Key:
Assay in all cases: inhibition of tumour cell growth, NCI panel, 48 h
[1] = tested on: SF-295
[2] = tested on: HT-29
[3] = tested on: CAKI-1
[4] = tested on: MOLT-4
[5] = tested on: OVCAR-3
[6] = tested on: LXFL 529
[7] = tested on: LOX IMVI
[8] = tested on: TK-10
[9] = tested on: HOP-18
[10] = tested on: SK-OV-3
[11] = tested on: SNB-78
[12] = tested on: IGROV-1
[13] = tested on: KM12
[14] = tested on: NCI-H226
[15] = tested on: ACHN
[16] = tested on: DMS-114
[17] = tested on: CCRF-CEM
[18] = tested on: HL-60
[19] = tested on: A549
[20] = tested on: OVCAR-4
[21] = tested on: UACC-257
[22] = tested on: SF-539
[23] = tested on: NCI-H23
[24] = tested on: UO-31
[25] = tested on: SK-MEL-2
[26] = tested on: A498
[27] = tested on: SNB-19
[28] = tested on: M19-MEL
[29] = tested on: EKVX
[30] = tested on: OVCAR-5
[31] = tested on: M14
[32] = tested on: DLD-1
[33] = tested on: UACC-62
[34] = tested on: HOP-62
[35] = tested on: DMS-273
[36] = tested on: RPMI-8226
[37] = tested on: RXF 393
[38] = tested on: SK-MEL-5
[39] = tested on: K562
[40] = tested on: OVCAR-8
[41] = tested on: SNB-75
[42] = tested on: SR
[43] = tested on: SN12C
[44] = tested on: KM-20L2
[45] = tested on: COLO 205
[46] = tested on: Malme-3M
[47] = tested on: SF-268
[48] = tested on: NCI-H460
[49] = tested on: NCI-H522
[50] = tested on: HCT-15
[51] = tested on: SW-620
[52] = tested on: XF498
[53] = tested on: HCC 2998
[54] = tested on: U-251
[55] = tested on: 786-0
[56] = tested on: HCT-116

CC1(C)Cc2cc(C(=O)O)c3c(c2C1=O)COCC3
GI50 [1]: > 100 µM (inactive) | GI50 [2]: > 100 µM (inactive) | GI50 [3]: > 100 µM (inactive) | GI50 [4]: > 100 µM (inactive) | GI50 [5]: > 100 µM (inactive) | GI50 [6]: > 100 µM (inactive) | GI50 [7]: > 100 µM (inactive) | GI50 [8]: > 10 µM (inactive) | GI50 [9]: > 100 µM (inactive) | GI50 [10]: > 100 µM (inactive) | GI50 [11]: > 100 µM (inactive) | GI50 [12]: > 100 µM (inactive) | GI50 [13]: > 100 µM (inactive) | GI50 [14]: > 100 µM (inactive) | GI50 [15]: > 100 µM (inactive) | GI50 [16]: > 100 µM (inactive) | GI50 [17]: > 100 µM (inactive) | GI50 [18]: > 100 µM (inactive) | GI50 [19]: > 100 µM (inactive) | GI50 [20]: > 100 µM (inactive) | GI50 [21]: > 100 µM (inactive) | GI50 [22]: > 100 µM (inactive) | GI50 [23]: > 100 µM (inactive) | GI50 [24]: > 100 µM (inactive) | GI50 [25]: > 100 µM (inactive) | GI50 [26]: > 100 µM (inactive) | GI50 [27]: > 100 µM (inactive) | GI50 [28]: > 100 µM (inactive) | GI50 [29]: > 100 µM (inactive) | GI50 [30]: > 100 µM (inactive) | GI50 [31]: > 100 µM (inactive) | GI50 [32]: > 100 µM (inactive) | GI50 [33]: > 100 µM (inactive) | GI50 [34]: > 100 µM (inactive) | GI50 [35]: > 100 µM (inactive) | GI50 [36]: > 100 µM (inactive) | GI50 [37]: > 100 µM (inactive) | GI50 [38]: > 100 µM (inactive) | GI50 [39]: > 100 µM (inactive) | GI50 [40]: > 100 µM (inactive) | GI50 [41]: > 100 µM (inactive) | GI50 [42]: > 100 µM (inactive) | GI50 [43]: > 100 µM (inactive) | GI50 [44]: > 100 µM (inactive) | GI50 [45]: > 100 µM (inactive) | GI50 [46]: > 100 µM (inactive) | GI50 [47]: > 100 µM (inactive) | GI50 [48]: > 100 µM (inactive) | GI50 [49]: 32.4 µM (inactive) | GI50 [50]: > 100 µM | GI50 [51]: > 100 µM (inactive) | GI50 [52]: > 100 µM (inactive) | GI50 [53]: > 100 µM (inactive) | GI50 [54]: > 100 µM (inactive) | GI50 [55]: > 100 µM (inactive) | GI50 [56]: > 100 µM (inactive)
